Experimental data published in patent US10167300B2, “Metalloenzyme inhibitor compounds as fungicides” (priority 2014, dated 2019).
Like-named read-outs stand apart in the source and are kept apart here.

Experiments:
[1] = system: Mycosphaerella graminicola; Anamorph: Septoria tritici; Bayer Code SEPTTR (standard laboratory isolate, SI SEPTTR); assay: Type A (high volume) assay, leaf blotch of wheat, standard laboratory SEPTTR isolate (SI SEPTTR); type: in vivo, Mycosphaerella graminicola on wheat plants (variety Yuma); conditions: standard laboratory isolate, high volume, 50 ppm, wheat (Yuma); for pest or weed control at 50 ppm: Zymoseptoria tritici
Method: (§1) Example A: Evaluation of Fungicidal Activity: Leaf Blotch of Wheat (Mycosphaerella graminicola; Anamorph: Septoria tritici; Bayer Code SEPTTR)
(§2) For Type A assays, technical grades of the experimental fungicides in Table 4 below were dissolved in acetone, and then mixed with nine volumes of water containing 110 ppm Triton X-100. The fungicide solutions were applied onto wheat seedlings using an automated booth sprayer. For Type B assays, emulsifiable concentrate (EC) formulations of technical grades of the experimental fungicides in Table 4 below were prepared at 10% (w/v), and then mixed with 150 volumes of 0.1% Trycol 5941. These solutions were applied onto wheat seedlings using an automated track sprayer at 200 L/ha. All sprayed plants were allowed to air dry prior to further handling.
(§3) Wheat plants (variety Yuma) were grown from seed in a greenhouse in 50% mineral soil/50% soil-less Metro mix until the first leaf was fully emerged, with 7-10 seedlings per pot. Prior to or after application of experimental fungicides, plants were inoculated either with spores of a standard laboratory SEPTTR isolate (SI SEPTTR) or with spores from a SEPTTR field isolate collected from Wellsbourne, England in 2012 (FI SEPTTR). After inoculation the plants were kept for 3 days at 20° C. in 100% relative humidity (one day in a dark dew chamber followed by two days in a lighted dew chamber). Plants were then transferred to a 20° C. greenhouse for disease development. When disease symptoms were fully expressed on untreated plants, infection levels on treated plants were assessed on a scale of 0 to 100 percent disease severity. Percent disease control was calculated using the ratio of disease severity on treated plants relative to untreated plants.

[2] = Type B (low volume, EC formulation, track sprayer 200 L/ha) assay, leaf blotch of wheat, SEPTTR field isolate (FI SEPTTR); type: in vivo, Mycosphaerella graminicola on wheat plants (variety Yuma); conditions: Zymoseptoria tritici, 72 h, 100 g/ha
Method: as §1, §2, §3

[3] = 24 h, 1 Day Protectant, read-out: Disease Control, SI SEPTTR Type A Assay (50 ppm) 1 DP
[4] = 72 h, 3 Day Curative, read-out: Disease Control, SI SEPTTR Type A Assay (50 ppm) 3 DC
[5] = field isolate, low volume EC, 3 Day Curative, wheat (Yuma), read-out: Disease Control, FI SEPTTR Type B Assay (100 g/ha) 3 DC
[6] = field isolate, low volume EC, 3 Day Protectant, wheat (Yuma), read-out: Disease Control, FI SEPTTR Type B Assay (100 g/ha) 3 DP
[7] = SEPTTR field isolate, low volume Type B assay, 3 Day Curative, wheat leaf blotch, read-out: Disease Control, FI SEPTTR Type B Assay (100 g/ha) 3 DC
[8] = SEPTTR field isolate, low volume Type B assay, 3 Day Protectant, wheat leaf blotch, read-out: Disease Control, FI SEPTTR Type B Assay (100 g/ha) 3 DP

Row | SMILES | pest or weed control at 50 ppm [1, 3] [%] | pest or weed control at 50 ppm [1, 4] [%] | other results
1 | CCOc1ccc(-c2ccc(C(O)(c3cncnc3)C(C)(C)C)nc2)cc1 (stereo not drawn) [Compound 111] | 60 to 79 |  | 
2 | CC(C)C(O)(c1ccc(-c2ccc(OC(F)F)cc2)cn1)c1cncs1 (stereo not drawn) [Compound 85] | 80 to 100 |  | 
3 | CC(C)(C)C#CC(O)(c1cncnc1)c1ccc(Oc2ccc(Cl)nc2)cn1 (stereo not drawn) [Compound 35] | < 40 | 60 to 79 | 
4 | COc1ncncc1C(O)(c1ccc(-c2ccc(C#N)cc2)cn1)C(C)(C)C (stereo not drawn) [Compound 170] | 80 to 100 |  | 
5 | CC(C)C(O)(c1cncnc1)c1ccc(Oc2ccc(Cl)cc2)cn1 (stereo not drawn) [Compound 6] | 80 to 100 | 80 to 100 | 
6 | CC(C)(C)C#CC(O)(c1cncnc1)c1ccc(Oc2ccc(OC(F)(F)F)cc2)cn1 (stereo not drawn) [Compound 31] | < 40 | 60 to 79 | 
7 | OC(CCc1ccc(Cl)cc1F)(Cn1cnnn1)c1ccc(Oc2ccc(Cl)cn2)cn1 (stereo not drawn) [Compound 4] | 60 to 79 | < 40 | 
8 | CCC(O)(c1cncnc1)c1ccc(Oc2ccc(C(F)(F)F)cc2)cn1 (stereo not drawn) [Compound 34] | 80 to 100 | 60 to 79 | 
9 | CC(C)(C)C(O)(c1cncnc1)c1ccc(-c2cccnc2)cn1 (stereo not drawn) [Compound 126] | 60 to 79 |  | 
10 | CN(C)c1ccc(-c2ccc(C(O)(c3cncnc3)C(C)(C)C)nc2)cc1 (stereo not drawn) [Compound 100] | 80 to 100 |  | 
11 | CC(C)C(O)(c1ccc(-c2ccc(OC(F)(F)F)cc2)cn1)c1cncs1 (stereo not drawn) [Compound 87] | 80 to 100 |  | 
12 | CCC(O)(c1cncnc1)c1ccc(Oc2cccc(Cl)n2)cn1 (stereo not drawn) [Compound 70] | 40 to 59 |  | 
13 | OC(Cc1cncnc1)(c1ccc(-c2ccc(Cl)cc2)cn1)C1CCCC1 (stereo not drawn) [Compound 56] | 80 to 100 | 80 to 100 | 
14 | OC(c1ccc(-c2ccc(OC(F)(F)F)cc2)cn1)(c1cncs1)c1ccc(F)cc1F (stereo not drawn) [Compound 94] | 60 to 79 |  | 
15 | CCC(O)(c1cncnc1)c1ccc(Oc2ccc(Cl)nc2)cn1 (stereo not drawn) [Compound 36] | < 40 | 60 to 79 | 
16 | CC(C)(C)C(O)(c1cncnc1)c1ccc(-c2cncnc2)cn1 (stereo not drawn) [Compound 113] | 60 to 79 |  | 
17 | CC(C)C(O)(c1cncnc1)c1ccc(Oc2ccc(C(F)(F)F)cn2)cn1 (stereo not drawn) [Compound 58] | 60 to 79 | 80 to 100 | 
18 | CC(C)C(O)(Cn1cnnn1)c1ccc(-c2ccc(OCC(F)(F)F)nc2)cn1 (stereo not drawn) [Compound 62] | 40 to 59 | 40 to 59 | 
19 | CC(C)C(O)(c1cncnc1)c1ccc(Oc2ccc(Cl)nc2)cn1 (stereo not drawn) [Compound 10] | 80 to 100 | 80 to 100 | 
20 | CC(C)(C)C(O)(c1cncnc1)c1ccc(-c2ccc(CC#N)cc2)cn1 (stereo not drawn) [Compound 153] | 80 to 100 |  | 
21 | CC(C)(C)C(O)(Cn1cnnn1)c1ccc(Oc2ccc(Cl)cc2)cn1 (stereo not drawn) [Compound 43] | 60 to 79 | 80 to 100 | 
22 | CC(C)(C)C(O)(c1cncnc1)c1ccc(-c2cnc(C(F)(F)F)cc2C(F)(F)F)cn1 (stereo not drawn) [Compound 128] | 80 to 100 |  | 
23 | CC(C)(C)C(O)(Cn1cnnn1)c1ccc(-c2ccc(OC(F)(F)F)cc2)cn1 (stereo not drawn) [Compound 26, 3,3-dimethyl-1-(1H-tetrazol-1-yl)-2-[5-[4-(trifluoro-methoxy)phenyl]pyridine-2-yl]butan-2-ol] | < 40 | 40 to 59 | 

Row | SMILES | pest or weed control at 50 ppm [1, 3] [%] | pest or weed control at 50 ppm [1, 4] [%] | other results
24 | CC(C)C(O)(c1cccnc1)c1ccc(Oc2ccc(Cl)cn2)cn1 (stereo not drawn) [Compound 77] | 80 to 100 |  | 
25 | CC(C)(C)C(O)(c1cncnc1)c1ccc(-c2ccsc2)cn1 (stereo not drawn) [Compound 110] | 80 to 100 |  | 
26 | OC(Cc1cncnc1)(c1ccc(-c2ccc(Cl)cc2)cn1)C1CCCCC1 (stereo not drawn) [Compound 52] | 60 to 79 | 60 to 79 | 
27 | CC(C)C(O)(c1cncnc1)c1ccc(Oc2ccc(C(F)(F)F)cc2)cn1 (stereo not drawn) [Compound 75] |  |  | Disease Control, SI SEPTTR Type A Assay (50 ppm) 1 DP ([1]; 1 Day Protectant): A (80-100)
28 | N#Cc1ccc(Oc2ccc(C(O)(Cn3cnnn3)C(F)(F)c3ccc(F)cc3F)nc2)cc1 (stereo not drawn) [Compound 1, 4-((6-(1-(2,4-difluorophenyl)-1,1-difluoro-2-hydroxy-3-(1H-tetrazol-1-yl)propan-2-yl)pyridin-3-yl)oxy)benzonitrile] | < 40 | 40 to 59 | 
29 | CCC(C)(C)C(O)(c1cccnc1)c1ccc(-c2ccc(OC(F)(F)F)cc2)cn1 (stereo not drawn) [Compound 154] | 80 to 100 |  | 
30 | COC(C)(c1cncnc1)c1ccc(-c2ccc(OC(F)(F)F)cc2)cn1 (stereo not drawn) [Compound 241] |  |  | pest or weed control at 100 g/ha [2, 5]: < 40%; pest or weed control at 100 g/ha [2, 6]: 40 to 59%
31 | COC(c1cncnc1)(c1ccc(-c2ccc(OC(F)(F)F)cc2F)cn1)C(C)(C)C (stereo not drawn) [Compound 211] |  |  | pest or weed control at 100 g/ha [2, 5]: 80 to 100%; pest or weed control at 100 g/ha [2, 6]: 80 to 100%
32 | CC(C)(C)C(O)(c1ccc(-c2ccc(OC(F)(F)F)cc2F)cn1)c1cnccn1 (stereo not drawn) [Compound 271] |  |  | pest or weed control at 100 g/ha [2, 7]: < 40%; pest or weed control at 100 g/ha [2, 8]: 80 to 100%
33 | CCC(OC)(c1cncnc1)c1ccc(-c2ccc(OC(F)(F)F)cc2F)cn1 (stereo not drawn) [Compound 269] |  |  | pest or weed control at 100 g/ha [2, 7]: 40 to 59%; pest or weed control at 100 g/ha [2, 8]: 80 to 100%
34 | COC(c1cncnc1)(c1ccc(-c2ccc(OCC(F)(F)F)cc2)cn1)C(C)(C)C (stereo not drawn) [Compound 257] |  |  | pest or weed control at 100 g/ha [2, 7]: 60 to 79%; pest or weed control at 100 g/ha [2, 8]: 60 to 79%
35 | CC(C)(C)C(O)(c1ccc(-c2ccc(OC(F)(F)F)cc2)cn1)c1cnccn1 (stereo not drawn) [Compound 207] |  |  | pest or weed control at 100 g/ha [2, 5]: 40 to 59%; pest or weed control at 100 g/ha [2, 6]: 60 to 79%
36 | C#CCOC(CC)(c1cncnc1)c1ccc(-c2ccc(OC(F)(F)F)cc2F)cn1 (stereo not drawn) [Compound 238] |  |  | pest or weed control at 100 g/ha [2, 5]: 60 to 79%; pest or weed control at 100 g/ha [2, 6]: < 40%
37 | CC(C)(C)C(O)(c1cncnc1)c1ccc(-c2ccc(I)cc2)cn1 (stereo not drawn) [Compound 165, 1-(5-(4-iodophenyl)pyridin-2-yl)-2,2-dimethyl-1-(pyrimidin-5-yl)propan-1-ol] |  |  | pest or weed control at 100 g/ha [2, 5]: 80 to 100%; pest or weed control at 100 g/ha [2, 6]: 80 to 100%
38 | C#CCOC(C#CC)(c1cncnc1)c1ccc(-c2ccc(OC(F)(F)F)cc2F)cn1 (stereo not drawn) [Compound 248] |  |  | pest or weed control at 100 g/ha [2, 5]: < 40%; pest or weed control at 100 g/ha [2, 6]: 40 to 59%
39 | CC#CC(OCC)(c1cncnc1)c1ccc(-c2ccc(OC(F)(F)F)cc2)cn1 (stereo not drawn) [Compound 242] |  |  | pest or weed control at 100 g/ha [2, 5]: < 40%; pest or weed control at 100 g/ha [2, 6]: 40 to 59%
40 | COc1ncncc1C(O)(c1ccc(-c2ccc(C(C)(C)C#N)cc2)cn1)C(C)(C)C (stereo not drawn) [Compound 240] |  |  | pest or weed control at 100 g/ha [2, 5]: 80 to 100%; pest or weed control at 100 g/ha [2, 6]: 80 to 100%
41 | COC(c1cncnc1)(c1ccc(-c2ccc(OCC(F)(F)F)nc2)cn1)C(C)(C)C (stereo not drawn) [Compound 253] |  |  | pest or weed control at 100 g/ha [2, 5]: 80 to 100%; pest or weed control at 100 g/ha [2, 6]: 80 to 100%
42 | CCOC(C)(c1cncnc1)c1ccc(-c2ccc(OC(F)(F)F)cc2F)cn1 (stereo not drawn) [Compound 215] |  |  | pest or weed control at 100 g/ha [2, 5]: < 40%; pest or weed control at 100 g/ha [2, 6]: < 40%
43 | COc1cc(C(C)(C)C#N)ccc1-c1ccc(C(O)(c2cncnc2)C(C)(C)C)nc1 (stereo not drawn) [Compound 263] |  |  | pest or weed control at 100 g/ha [2, 7]: 80 to 100%; pest or weed control at 100 g/ha [2, 8]: 80 to 100%
44 | CCOC(c1cncnc1)(c1ccc(-c2ccc(OC(F)(F)F)cc2)cn1)C1CC1 (stereo not drawn) [Compound 232] |  |  | pest or weed control at 100 g/ha [2, 5]: < 40%; pest or weed control at 100 g/ha [2, 6]: 60 to 79%
45 | CCC(O)(c1cncnc1)c1ccc(-c2ccc(OC(F)(F)F)cc2)cn1 (stereo not drawn) [Compound 258] |  |  | pest or weed control at 100 g/ha [2, 7]: < 40%; pest or weed control at 100 g/ha [2, 8]: 60 to 79%
